What is called IC50 is the concentration needed to halve the response being measured. A high value points to weaker potency in that assay.

Holding throughout (format): functional, cell-based
Assay [1] concerns CCRF-CEM. The assay can be described thus: Cytotoxicity was evaluated against CEM tumor cell lines; Inactive. As to conditions: Homo sapiens.
Assay [2] concerns L1210. Nature of the assay: Cytotoxicity was evaluated against L1210 tumor cell lines; Inactive. The settings on record: Mus musculus.
For assay [3], the system named is A549. Nature of the assay: Cytotoxicity was evaluated against A549 tumor cell lines; Inactive. As to conditions: Homo sapiens.
Assay [4] has as its system NCI-H292. The assay can be described thus: Cytotoxicity was evaluated against H292 tumor cell lines; Inactive. The settings on record: Homo sapiens.
Assay [5] relates to WIL2. The assay can be described thus: Cytotoxicity was evaluated against WIL2 tumor cell lines; Inactive. As to conditions: Homo sapiens.
The next assay deals with Jurkat. Nature of the assay: In vitro test for antitumor activity against human Jurkat cell line using a formazan dye (MTT) conversion assay.
The subject of assay [6] is NIH3T3. The assay can be described thus: Cytotoxicity was evaluated against NIH3T3 tumor cell lines; Inactive. The settings on record: Mus musculus.
The subject of assay [7] is HL-60. The assay can be described thus: Cytotoxicity was evaluated against HL-60 tumor cell lines; Inactive. The settings on record: Homo sapiens.
For assay [8], the system named is MCF7. The assay can be described thus: Cytotoxicity was evaluated against MCF-7 tumor cell lines; Inactive. The settings on record: Homo sapiens.
Assay [9] deals with WI-38. The assay can be described thus: Cytotoxicity was evaluated against WI38 tumor cell lines; Inactive. As to conditions: Homo sapiens.
The subject of assay [10] is B16. The assay can be described thus: Cytotoxicity was evaluated against B16 tumor cell lines; Inactive. As to conditions: Mus musculus.
For assay [11], the system named is MOLT-4. Nature of the assay: Cytotoxicity was evaluated against Molt-4 tumor cell lines; Inactive. As to conditions: Homo sapiens.
Assay [12] deals with NCI-H596. Nature of the assay: Cytotoxicity was evaluated against H596 tumor cell lines; Inactive. The settings on record: Homo sapiens.
Assay [13] deals with K562. Nature of the assay: Cytotoxicity was evaluated against K562 tumor cell lines; Inactive. As to conditions: Homo sapiens.
The test system of assay [14] is HL-60. The assay can be described thus: Cytotoxicity evaluated against HL-60 tumor cell lines; Significant activity. As to conditions: Homo sapiens.
Assay [15] deals with WIL2. The assay can be described thus: Cytotoxicity evaluated against WIL2 tumor cell lines; Significant activity. As to conditions: Homo sapiens.
Assay [16] deals with MCF7. The assay can be described thus: Cytotoxicity evaluated against MCF-7 tumor cell lines; Significant activity. The settings on record: Homo sapiens.
Assay [17] has as its system A549. Nature of the assay: Cytotoxicity evaluated against A549 tumor cell lines; significant activity. The settings on record: Homo sapiens.
The subject of assay [18] is CCRF-CEM. The assay can be described thus: Cytotoxicity evaluated against CEM tumor cell lines; Significant activity. The settings on record: Homo sapiens.
Assay [19] has as its system NCI-H292. The assay can be described thus: Cytotoxicity evaluated against H292 tumor cell lines; Significant activity. The settings on record: Homo sapiens.
Assay [20] relates to NCI-H596. The assay can be described thus: Cytotoxicity evaluated against H596 tumor cell lines; Significant activity. As to conditions: Homo sapiens.
In assay [21] the test system is L1210. The assay can be described thus: Cytotoxicity evaluated against L1210 tumor cell lines; Significant activity. As to conditions: Mus musculus.
Assay [22] has as its system B16. The assay can be described thus: Cytotoxicity was evaluated against B16 tumor cell lines; Significant activity. As to conditions: Mus musculus.
Assay [23] concerns K562. The assay can be described thus: Cytotoxicity evaluated against K562 tumor cell lines; Significant activity. The settings on record: Homo sapiens.
In assay [24] the test system is MOLT-4. Nature of the assay: Cytotoxicity was evaluated against Molt-4 tumor cell lines. As to conditions: Homo sapiens.
The test system of assay [25] is WI-38. The assay can be described thus: Cytotoxicity evaluated against WI38 tumor cell lines; Significant activity. As to conditions: Homo sapiens.
Assay [26] deals with NIH3T3. The assay can be described thus: Cytotoxicity evaluated against NIH3T3 tumor cell lines; Significant activity. The settings on record: Mus musculus.

The source made the active and inactive calls. The rule behind the calls is not given here.

Consider `COc1cc2c(cc1OC)C(=O)/C(=C/c1cccc(OC)c1OC)CC2`, for which the Cytotoxicity entry in the assay on CCRF-CEM [1], with L1210 [2], in the assay with A549 [3], in the assay with NCI-H292 [4], in the assay on WIL2 [5] and in the assay with NIH3T3 [6] was “inactive” throughout. For the same compound, the Cytotoxicity result with HL-60 [7], in the assay with MCF7 [8], with WI-38 [9], with B16 [10], in the assay on MOLT-4 [11] and in the assay with NCI-H596 [12] was “inactive” throughout. The Cytotoxicity result in the assay with K562 [13] is “inactive”. The compound also gave an IC50 in the assay on Jurkat of more than 50 µM.
`COc1ccc(/C=C2\CCc3cc(OC)c(OC)cc3C2=O)c(OC)c1`: the Cytotoxicity result with CCRF-CEM [1], in the assay on L1210 [2], in the assay on A549 [3], with NCI-H292 [4], in the assay on WIL2 [5] and in the assay with NIH3T3 [6] was “inactive” in each case. For the same compound, the Cytotoxicity result in the assay on HL-60 [7], in the assay on MCF7 [8], with WI-38 [9], in the assay with B16 [10], in the assay with MOLT-4 [11] and in the assay with NCI-H596 [12] was “inactive” in each case. Moreover, the Cytotoxicity entry with K562 [13] was “inactive”. This compound also returned an IC50 in the assay with Jurkat of more than 50 µM.
As to `COc1cc2c(c([N+](=O)[O-])c1OC)C(=O)/C(=C/c1cc(C)c([N+](=O)[O-])c(C)c1)C2`, the Cytotoxicity entry in the assay on CCRF-CEM [1], in the assay on L1210 [2], in the assay with A549 [3], with NCI-H292 [4], in the assay on WIL2 [5] and in the assay on NIH3T3 [6] was “inactive” in each case. Besides, the Cytotoxicity result in the assay with HL-60 [7], with MCF7 [8], in the assay with WI-38 [9], with B16 [10], in the assay with MOLT-4 [11] and with NCI-H596 [12] was “inactive” each time. Further, the Cytotoxicity result in the assay on K562 [13] was “inactive”. Moreover, the IC50 in the assay on Jurkat is more than 50 µM.
With `O=C1/C(=C/c2cc(Cl)cc(Cl)c2)Cc2cc(O)c(O)cc21`, the Cytotoxicity entry in the assay on CCRF-CEM [1], in the assay with L1210 [2], in the assay with A549 [3], in the assay with NCI-H292 [4], in the assay on WIL2 [5] and in the assay on NIH3T3 [6] was “inactive” throughout. Also, the Cytotoxicity result with HL-60 [7], in the assay with MCF7 [8], in the assay on WI-38 [9], in the assay on B16 [10], with MOLT-4 [11] and in the assay with NCI-H596 [12] was “inactive” each time. In the assay on K562 [13], the Cytotoxicity entry is “inactive”. The IC50 in the assay with Jurkat is more than 50 µM.
Regarding `COc1cc2c(cc1OC)C(=O)/C(=C/c1cc(OC)c(OC)c(OC)c1)CC2`, the Cytotoxicity entry in the assay with HL-60 [14], in the assay with WIL2 [15], with MCF7 [16], in the assay with A549 [17], in the assay on CCRF-CEM [18] and in the assay on NCI-H292 [19] was “Significant activity” throughout. In addition, the Cytotoxicity result in the assay with NCI-H596 [20], with L1210 [21], with B16 [22], with K562 [23], in the assay on MOLT-4 [24] and with WI-38 [25] was “Significant activity” each time. For the same compound, in the assay on NIH3T3 [26], the Cytotoxicity entry was “Significant activity”. In the assay with Jurkat, the IC50 was more than 50 µM.
`COc1cc2c(cc1OC)C(=O)/C(=C/c1ccc(O)cc1)CC2`: the Cytotoxicity result with HL-60 [14], in the assay on WIL2 [15], in the assay with MCF7 [16], in the assay on A549 [17], with CCRF-CEM [18] and in the assay with NCI-H292 [19] was “Significant activity” throughout. Besides, the Cytotoxicity result in the assay on NCI-H596 [20], in the assay with L1210 [21], in the assay on B16 [22], in the assay on K562 [23], in the assay with MOLT-4 [24] and in the assay on WI-38 [25] was “Significant activity” throughout. In addition, the Cytotoxicity result with NIH3T3 [26] was “Significant activity”. The compound further showed an IC50 in the assay on Jurkat of 19 µM.
In the case of `COc1cc2c(cc1OC)C(=O)/C(=C/c1ccc(O)c(C)c1)C2`, the Cytotoxicity entry in the assay with HL-60 [14], in the assay with WIL2 [15], with MCF7 [16], in the assay with A549 [17], with CCRF-CEM [18] and in the assay with NCI-H292 [19] was “Significant activity” throughout. For the same compound, the Cytotoxicity result in the assay on NCI-H596 [20], in the assay with L1210 [21], with B16 [22], in the assay on K562 [23], with MOLT-4 [24] and with WI-38 [25] was “Significant activity” throughout. Moreover, in the assay on NIH3T3 [26], the Cytotoxicity entry was “Significant activity”. This compound registered an IC50 in the assay with Jurkat of 1.16 µM.
`CCOC(=O)COc1c(C)cc(/C=C2\Cc3cc(OC)c(OC)cc3C2=O)cc1C`: the Cytotoxicity result with HL-60 [14], in the assay on WIL2 [15], with MCF7 [16], in the assay with A549 [17], with CCRF-CEM [18] and in the assay with NCI-H292 [19] was “Significant activity” each time. For the same compound, the Cytotoxicity entry in the assay with NCI-H596 [20], with L1210 [21], with B16 [22], in the assay with K562 [23], with MOLT-4 [24] and with WI-38 [25] was “Significant activity” each time. Also, in the assay on NIH3T3 [26], the Cytotoxicity result was “Significant activity”. The compound further showed an IC50 in the assay on Jurkat of 2.2 µM.
Consider `COc1cc2c(cc1OC)C(=O)/C(=C/c1cc(I)cc(I)c1O)C2`, for which the Cytotoxicity result in the assay with HL-60 [14], in the assay on WIL2 [15], in the assay with MCF7 [16], with A549 [17], in the assay on CCRF-CEM [18] and with NCI-H292 [19] was “Significant activity” throughout. For the same compound, the Cytotoxicity result in the assay on NCI-H596 [20], in the assay with L1210 [21], with B16 [22], with K562 [23], in the assay with MOLT-4 [24] and in the assay with WI-38 [25] was “Significant activity” throughout. In the assay with NIH3T3 [26], the Cytotoxicity result was “Significant activity”. Further, half-maximal inhibition with Jurkat (IC50) required 2.5 µM.
As to `COc1cc2c(cc1OC)C(=O)/C(=C/c1cc([N+](=O)[O-])ccc1O)C2`, the Cytotoxicity result in the assay with HL-60 [14], with WIL2 [15], with MCF7 [16], in the assay with A549 [17], with CCRF-CEM [18] and in the assay with NCI-H292 [19] was “Significant activity” in each case. The Cytotoxicity result in the assay on NCI-H596 [20], in the assay on L1210 [21], in the assay on B16 [22], with K562 [23], in the assay with MOLT-4 [24] and with WI-38 [25] was “Significant activity” throughout. For the same compound, in the assay on NIH3T3 [26], the Cytotoxicity entry is “Significant activity”. In the assay on Jurkat, this compound registered an IC50 of 14.5 µM.
As for `COc1cc2c(cc1OC)C(=O)/C(=C/c1cc(Cl)cc(Cl)c1)CC2`, the Cytotoxicity entry in the assay on HL-60 [14], in the assay on WIL2 [15], with MCF7 [16], in the assay with A549 [17], in the assay with CCRF-CEM [18] and with NCI-H292 [19] was “Significant activity” each time. Further, the Cytotoxicity entry with NCI-H596 [20], in the assay on L1210 [21], in the assay with B16 [22], in the assay on K562 [23], in the assay with MOLT-4 [24] and in the assay on WI-38 [25] was “Significant activity” throughout. Further, the Cytotoxicity entry with NIH3T3 [26] is “Significant activity”. In the assay on Jurkat, this compound had an IC50 of 7 µM.
